Results published in US20200199230A1, “TREATMENT METHOD” (Hoffmann-La Roche Inc., priority 2017, published 2020).

Key:
[1] = system: tumor inflammation-related adverse effects; conditions: preliminary data; confirmed PR and SD observed in patients given prophylaxis
tumor cells = conditions: preclinically; increased intratumoral T-cell infiltration and activation, T-cell-mediated tumor cell killing, PD-L1/PD-1 upregulation; cited from earlier work
intratumoral T cells = assay: Biomarker analysis of on-treatment tumor biopsies; type: in vivo, human
Experimental: (§1) Methods: In 2 ongoing dose-escalation phase I studies, CEA-TCB is given as monotherapy IV QW (S1) or in combination (QW) with atezolizumab 1200 mg Q3W (S2) in patients with advanced CEA positive (≥20% of tumor cells expressing moderate or high) solid tumors. In S1, 80 patients (70 CRC) were treated at dose levels of 0.05-600 mg; in S2, 45 patients (35 CRC) at 5-160 mg (data cut-off 3 Mar. 2017). In addition biomarker analysis and PK assays were conducted.

[2] = system: advanced CEA positive solid tumors; type: in vivo, human
Experimental: In S1, 80 patients (70 CRC) were treated at dose levels of 0.05-600 mg; in S2, 45 patients (35 CRC) at 5-160 mg (data cut-off 3 Mar. 2017). In addition biomarker analysis and PK assays were conducted.

IL-6 = assay: Biomarker analysis: IL-6 after administration; type: in vivo, human; conditions: most patients; after the first administration
Experimental: as §1

[3] = parameters: species or system human; conditions: in vivo
Experimental: as §1

With `C[C@]12C=CC(=O)C=C1CC[C@@H]1[C@@H]2C(=O)C[C@@]2(C)[C@H]1CC[C@]2(O)C(=O)CO` [prednisone] the “effect of prophylactic steroid doses on anti-tumor activity of CEA-TCB monotherapy or combination with atezolizumab” value [1] was “did not impair the anti-tumor activity”.

In the case of “CEA-TCB: novel T-cell bispecific antibody targeting CEA on tumor cells and CD3 on T cells; polypeptides of SEQ ID NO: 25-28”, the preclinical antitumor activity (tumor cells) is listed as “potent antitumor activity”, the “increase in Ki67+ T cells as compared to baseline” value (intratumoral T cells; S1, doses ≥60 mg, OT biopsies, P=0.035, without dose-dependence) is listed as 3.6 fold and the “intratumoral CD8 T cells” value (intratumoral T cells; on-treatment) is listed as “On-treatment increases”. The “tumor reduction of −10% to −30% (stable disease), share of patients” value ([2]; S1 monotherapy, doses ≥60 mg, MSS CRC patients, 4 patients) was 13%, the “confirmed partial response (PR; RECIST v1.1), share of CRC patients” value ([2]; S1 monotherapy, doses ≥60 mg, two of 31 evaluable CRC patients, both MSS) was 6% and the “metabolic PR (FDG PET; EORTC criteria), share of CRC patients” value ([2]; S1 monotherapy, weeks 4-6, 9 patients) was 29%. For the same molecule, the “MTD (maximum tolerated dose)” value ([2]; human, in vivo, iv) was less than 600 mg, the “patients with dose limiting toxicities (DLTs)” value ([2]; in vivo) was “Five” and the “related adverse event: diarrhea” value ([2]; in vivo) was 40%. The “related adverse event: infusion-related reactions (IRRs)” value ([2]; in vivo) was 55%, the “related adverse event: pyrexia” value ([2]; in vivo) was 58% and the “antitumor activity in advanced CRC” value ([2]; monotherapy, during dose escalation) was “Evidence of antitumor activity”. The IL-6 change (IL-6) was “increases in IL-6”, the “effect of ADA on drug clearance” value ([3]; human) was “ADA increase CEA-TCB drug clearance” and the PK linearity [3] was “almost linear PK”.
